Experimental data: PMC8941652 (European journal of medicinal chemistry, 2022)
Where two headings read alike, the source gives them in different places.

Legend:
[1] = test system: Mycobacterium tuberculosis H37Rv; type: cell-based; settings: for MIC: H37Rv, 7H9 liquid medium, at least 90% growth inhibition, 10 days
[2] = type: in vivo, CD-1 female mice; settings: p.o. 25 mg/kg, CMC/Tween80 suspension, compared with parent PAS
[3] = test system: Drug susceptible Mtb strains; assay: microbe, parasite or virus in culture; type: cell-based; settings: Mycobacterium tuberculosis
[4] = test system: Mycobacterium tuberculosis; settings: cited from earlier work
[5] = p.o. 25 mg/kg

Compound | MIC [1] | MIC [3] [µM] | other results
CC(C)OC(=O)c1ccc(N)cc1O [Compound 5, Isopropyl 4-amino-2-hydroxybenzoate] | abolished activity | – | –
CC(C)(C)C(=O)OCOC(=O)c1ccc(N)cc1O [Compound 6, (Pivaloyloxy)methyl 4-amino-2-hydroxybenzoate] | – | – | oral bioavailability of PAS released from the suspension of prodrug [2]: significantly lower than the parent PAS
Nc1cc(O)c(C(=O)O)cc1F [Compound 11, 4-Amino-5-fluoro-2-hydroxybenzoic acid] | – | 6.3 to 25 | MIC ([3]; read-out: MICs against the drug susceptible and MDR strains): 6.3 to 50 µg/mL
CNc1ccc(C(=O)O)c(O)c1 [Compound 14, 2-Hydroxy-4-(methylamino)benzoic acid] | inactive | – | antitubercular potency relative to PAS [4]: nearly equipotent to PAS
[N-]=[N+]=Nc1ccc(C(=O)O)c(O)c1 [Compound 15, 4-Azido-2-hydroxybenzoic acid] | weakly active | – | loss of activity compared to PAS ([1]; H37Rv MIC): ~200 fold; formation of PAS in vivo [5]: no formation of PAS in vivo
CCOC(=O)c1cc(F)c(N)cc1O [Compound 16, Ethyl 4-amino-5-fluoro-2-hydroxybenzoate] | inactive | – | –
CC(=O)NC[C@H]1CN(c2ccc(N3CCOCC3)c(F)c2)C(=O)O1 [Linezolid] | – | 0.7 to 1.9 | –
Nc1ccc(C(=O)O)c(O)c1 [PAS, para-Aminosalicylic acid] | – | 0.2 to 0.6 | –
